In this assay the test system is L1210 leukemia ip in BDF1 mice, survival T/C. The assay is described as follows: NCI In Vivo Anticancer Drug Screen. Data for tumor model L1210 Leukemia (intraperitoneal) in B6D2F1 (BDF1) mice. The conditions noted are these: endpoint: mean survival time, higher = longer survival. In outline:
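Tumor was transplanted into mice, which were then dosed with test compound or vehicle alone. Survival was recorded for each group, and the treated figure was expressed relative to the control figure.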

Where [1] appears, read: dose: 100.0 mg/kg/injection, schedule: Q01DX001 (ip), vehicle: saline.
[2] abbreviates: dose: 200.0 mg/kg/injection, schedule: Q01DX001 (ip), vehicle: saline.
Where [3] appears, read: dose: 400.0 mg/kg/injection, schedule: Q01DX001 (ip), vehicle: saline.
Setting [4] is: dose: 100.0 mg/kg/injection, schedule: Q04DX003 (ip), vehicle: Klucel (hydroxypropylcellulose) (HPC).
[5] abbreviates: dose: 200.0 mg/kg/injection, schedule: Q04DX003 (ip), vehicle: Klucel (hydroxypropylcellulose) (HPC).
[6] abbreviates: dose: 400.0 mg/kg/injection, schedule: Q04DX003 (ip), vehicle: Klucel (hydroxypropylcellulose) (HPC).
Setting [7] is: dose: 100.0 mg/kg/injection, schedule: Q01DX009 (ip), vehicle: Klucel (hydroxypropylcellulose) (HPC).
The mark [8] stands for this setting: dose: 200.0 mg/kg/injection, schedule: Q01DX009 (ip), vehicle: Klucel (hydroxypropylcellulose) (HPC).
Setting [9] is: dose: 400.0 mg/kg/injection, schedule: Q01DX009 (ip), vehicle: Klucel (hydroxypropylcellulose) (HPC).
[10] abbreviates: dose: 100.0 mg/kg/injection, schedule: Q04DX003 (ip), vehicle: saline.
The mark [11] stands for this setting: dose: 100.0 mg/kg/injection, schedule: Q04DX003 (ip), vehicle: saline with Tween-80.

Toxic doses and inconclusive results are not listed.

Turning to `O=C(Nc1cccc(C2=NCCN2)c1)c1ccc(OCCCOc2ccc(C(=O)Nc3cccc(C4=NCCN4)c3)cc2)cc1`, the T/C reads like this: (dose: 9.0 mg/kg/injection, schedule: Q01DX Z (ip), vehicle: saline) 113 % of control; (dose: 12.0 mg/kg/injection, schedule: Q01DX Z (ip), vehicle: water) 107 % of control; (dose: 13.0 mg/kg/injection, schedule: Q01DX Z (ip), vehicle: saline) 107 % of control; (dose: 20.0 mg/kg/injection, schedule: Q01DX Z (ip), vehicle: saline) 112 % of control; (dose: 25.0 mg/kg/injection, schedule: Q01DX Z (ip), vehicle: water) 111 % of control.
Take `COC1OC(COC(=O)c2ccc([N+](=O)[O-])cc2)C(OCc2ccccc2)C1OC(=O)c1ccc([N+](=O)[O-])cc1` (stereo not given): the T/C is 113 % of control (dose: 50.0 mg/kg/injection, schedule: Q01DX001 (ip), vehicle: saline); 105 % of control under setting [1]; 116 % of control under setting [2]; 105 % of control under setting [3].
For the molecule `CCCc1cc(CN2CCCCC2)c(O)c(CN2CCCCC2)c1O`, the T/C is, setting by setting: under setting [1], 96 % of control; under setting [2], 95 % of control; under setting [3], 88 % of control.
`Nc1nc(N)nc(-c2ccccc2N=NN2CCOCC2)n1`: the T/C was 103 % of control under setting [4], 101 % of control under setting [5] and 101 % of control under setting [6].
For `Cc1[nH]c(N)nc(=S)c1CCC(=O)O`, the T/C runs as follows: under setting [7], 96 % of control; under setting [4], 98 % of control; under setting [8], 96 % of control; under setting [5], 93 % of control; under setting [9], 98 % of control; under setting [6], 90 % of control.
Turning to `C1=C(COC(c2ccccc2)(c2ccccc2)c2ccccc2)CCCC1`, the T/C (dose: 100.0 mg/kg/injection, schedule: Q01DX001 (ip), vehicle: carboxymethylcellulose (CMC)) is 87 % of control and the T/C (dose: 400.0 mg/kg/injection, schedule: Q01DX001 (ip), vehicle: carboxymethylcellulose (CMC)) is 87 % of control.
Take `CC12CCc3occc3C1CCC13CC(CO)C(O)(CCC12)C3` (stereo not given): the T/C was 94 % of control under setting [10] and 93 % of control (dose: 200.0 mg/kg/injection, schedule: Q04DX003 (ip), vehicle: saline).
In the case of `c1ccc(-c2cc(-c3ccccc3)on2)cc1`, the T/C is 100 % of control under setting [4], 98 % of control under setting [5] and 102 % of control under setting [6].
Turning to `CCOc1ccc([N+](=O)[O-])cc1C1N(Cc2ccc(OC)cc2)CCCN1Cc1ccc(OC)cc1`, the T/C was 100 % of control (dose: 100.0 mg/kg/injection, schedule: Q01DX001 (ip), vehicle: acetone); 94 % of control (dose: 200.0 mg/kg/injection, schedule: Q01DX001 (ip), vehicle: acetone); 94 % of control (dose: 400.0 mg/kg/injection, schedule: Q01DX001 (ip), vehicle: acetone).
Consider `CCCCNc1ccc(C(=O)O)cc1`, for which the T/C reads like this: (dose: 100.0 mg/kg/injection, schedule: Q01DX009 (ip), vehicle: gum acacia) 97 % of control; (dose: 100.0 mg/kg/injection, schedule: Q04DX003 (ip), vehicle: gum acacia) 90 % of control; (dose: 200.0 mg/kg/injection, schedule: Q01DX009 (ip), vehicle: gum acacia) 92 % of control; (dose: 200.0 mg/kg/injection, schedule: Q04DX003 (ip), vehicle: gum acacia) 91 % of control; (dose: 400.0 mg/kg/injection, schedule: Q01DX009 (ip), vehicle: gum acacia) 93 % of control; (dose: 400.0 mg/kg/injection, schedule: Q04DX003 (ip), vehicle: gum acacia) 93 % of control.
Regarding `CCOC(=O)C(/C=N/C(N)=O)=C(\C)O`, the T/C reads like this: under setting [7], 105 % of control; under setting [4], 102 % of control; under setting [8], 95 % of control; under setting [5], 101 % of control; under setting [9], 106 % of control; under setting [6], 92 % of control.
As for `O=[N+]([O-])c1ccc(Oc2ccc(C3N(c4ccccc4)CCN3c3ccccc3)cc2)c([N+](=O)[O-])c1`, the T/C is 91 % of control (dose: 25.0 mg/kg/injection, schedule: Q01DX009 (ip), vehicle: water); 91 % of control (dose: 50.0 mg/kg/injection, schedule: Q01DX009 (ip), vehicle: water); 86 % of control (dose: 100.0 mg/kg/injection, schedule: Q01DX009 (ip), vehicle: water); 91 % of control (dose: 200.0 mg/kg/injection, schedule: Q01DX009 (ip), vehicle: water); 86 % of control (dose: 400.0 mg/kg/injection, schedule: Q01DX009 (ip), vehicle: water).
Consider `CC(=O)OC1CCC(NC(N)=O)CC1` (stereo not given), for which the T/C by setting is: (dose: 176.0 mg/kg/injection, schedule: Q01DX001 (ip), vehicle: other) 102 % of control; (dose: 264.0 mg/kg/injection, schedule: Q01DX001 (ip), vehicle: other) 120 % of control; (dose: 400.0 mg/kg/injection, schedule: Q01DX001 (ip), vehicle: other) 97 % of control; (dose: 600.0 mg/kg/injection, schedule: Q01DX001 (ip), vehicle: other) 105 % of control.
For the molecule `CCS(=O)(=O)Nc1cccc(Nc2c3cccc(C)c3nc3c(C)cccc23)c1OC`, the T/C reads like this: (dose: 5.5 mg/kg/injection, schedule: Q01DX009 (ip), vehicle: saline) 122 % of control; (dose: 11.0 mg/kg/injection, schedule: Q04DX003 (ip), vehicle: saline) 113 % of control; (dose: 12.5 mg/kg/injection, schedule: Q01DX009 (ip), vehicle: saline with Tween-80) 155 % of control; (dose: 12.5 mg/kg/injection, schedule: Q01DX009 (sc), vehicle: Klucel (hydroxypropylcellulose) (HPC)) 112 % of control; (dose: 16.0 mg/kg/injection, schedule: Q04DX003 (ip), vehicle: saline) 114 % of control; (dose: 25.0 mg/kg/injection, schedule: Q01DX009 (ip), vehicle: saline with Tween-80) 181 % of control. In addition, the T/C (dose: 25.0 mg/kg/injection, schedule: Q01DX009 (sc), vehicle: Klucel (hydroxypropylcellulose) (HPC)) was 123 % of control; the T/C (dose: 50.0 mg/kg/injection, schedule: Q01DX009 (ip), vehicle: saline with Tween-80) is 103 % of control; the T/C (dose: 50.0 mg/kg/injection, schedule: Q04DX003 (ip), vehicle: saline) was 157 % of control; the T/C under setting [10] is 170 % of control.
Consider `O=C(CC(O)(C(F)(F)Cl)C(F)(F)Cl)c1cccs1`, for which the T/C is, setting by setting: (dose: 50.0 mg/kg/injection, schedule: Q04DX003 (ip), vehicle: saline with Tween-80) 101 % of control; (dose: 100.0 mg/kg/injection, schedule: Q01DX009 (ip), vehicle: saline with Tween-80) 108 % of control; under setting [11], 101 % of control; (dose: 200.0 mg/kg/injection, schedule: Q01DX009 (ip), vehicle: saline with Tween-80) 114 % of control; (dose: 200.0 mg/kg/injection, schedule: Q04DX003 (ip), vehicle: saline with Tween-80) 98 % of control; (dose: 400.0 mg/kg/injection, schedule: Q01DX009 (ip), vehicle: saline with Tween-80) 98 % of control. Also, the T/C (dose: 400.0 mg/kg/injection, schedule: Q04DX003 (ip), vehicle: saline with Tween-80) was 98 % of control.
For the molecule `N#CCN(CC#N)CCN(CC#N)CCN(CC#N)CC#N`, the T/C reads like this: under setting [1], 104 % of control; under setting [2], 104 % of control; under setting [3], 95 % of control.
As to `c1ccc(C2CCN3c4ccc5ccccc5c4NCC23)cc1` (stereo not given), the T/C was 107 % of control (dose: 100.0 mg/kg/injection, schedule: Q04DX002 (ip), vehicle: Klucel (hydroxypropylcellulose) (HPC)); 93 % of control (dose: 200.0 mg/kg/injection, schedule: Q04DX002 (ip), vehicle: Klucel (hydroxypropylcellulose) (HPC)); 93 % of control (dose: 400.0 mg/kg/injection, schedule: Q04DX002 (ip), vehicle: Klucel (hydroxypropylcellulose) (HPC)).
On to `CC(O)c1cccc(Br)c1` (stereo not given), for which the T/C by setting is: (dose: 100.0 mg/kg/injection, schedule: Q04DX002 (ip), vehicle: saline with Tween-80) 100 % of control; (dose: 200.0 mg/kg/injection, schedule: Q04DX002 (ip), vehicle: saline with Tween-80) 90 % of control; (dose: 400.0 mg/kg/injection, schedule: Q04DX002 (ip), vehicle: saline with Tween-80) 90 % of control.
For the molecule `CCCCCCCCCCCCn1ncc2ccc([N+](=O)[O-])cc21`, under setting [3], the T/C was 96 % of control.
In the case of `CC1NC=NC1C(c1ccccc1)c1ccccc1` (stereo not given), under setting [11], the T/C is 101 % of control.

Values taken from PubChem BioAssay AID248 (DTP/NCI, 2004).
